The values below come from patent US8188141B2, “Isomigrastatin analogs in the treatment of cancer” (Sloan-Kettering Institute for Cancer Research, priority 2004, dated 2012).

The subject of one data set is Ovcar3 tumor cells. As to the kind of experiment: Wound healing assay. The data set is classed as cell-based, human. The settings on record: 250 nM. How it is done:
The tumor cells (Ovcar3) were seeded into 24-multiwell plates (Becton-Dickinson) and cultivated until the cells formed a confluent monolayer. Wounds were set by horizontally scratching the monolayer with a sterile pipette tip. The cells were thereafter washed twice with Phosphate Buffered Saline (PBS) to remove detached cells. Growth media was then added containing 250 nM of the chemical compounds (21, 22, and 30) and incubated at 37° C. The cells were photographed at the beginning of the experiment and after 24 to assess the progression of cell migration into the wound.

The test system of data set [1] is Ovcar3 ovarian cancer cells. The data set is described as follows: Chamber cell migration (transwell) assay. To be noted: for IC50: OVCAR-3; for inhibiting the migration of human ovarian cancer cells in the transwell assay: Ovcar3. The data set is classed as cell-based, human. As to the method: Cell migrations of Ovcar3 ovarian cancer cells were assayed with 8 μm of microporous 6.5-mm transwell plates (Corning). 100 wl of 5×10^4 cells in serum-free RPMI1640 medium containing 0.5% BSA were added to the upper chamber and 600 μl of medium with 10% fetal bovine serum was added to the lower chamber. Transwells were incubated for 12 hours with following concentrations of chemical compounds in both upper and lower chambers (1 nM, 10 nM, 100 nM 1 μM, 10 μM). Cells on the inside of the transwell inserts were removed with a cotton swab, and cells on the under side of the insert were fixed and stained. Photographs of three random regions were taken and the number of cells was counted to calculate the average number of cells that had transmigrated. Data shown is the average of at least three experiments.

Data set [2] concerns human ovarian tumor cell line OVCAR3. The data set is described as follows: In vivo metastatic model (ovarian xenograph, luciferase tumor imaging). On the set-up: species or system mouse. The settings on record: treated mice. From the text:
The human ovarian tumor cell line OVCAR3 was transduced with a triple fusion gene HSV-TK/eGFP/FLuc, expressing thymidine kinase, enhanced green fluorescence protein and firefly luciferase. Whole animal imaging by luciferase bioluminescence (FIG. 5A), allowed identification and quantification of disseminated tumor. We quantified the tumor burden in each organ, by sacrificing the mouse shortly after luciferin injecting and imaging of the dissected organs (lung, liver and spleen) (FIG. 5B). In all instances tumor engraftment was initiated with 1−5×10^7 cells and the recipients received 3 Gy irradiation 10 days before tumor engraftment. These tumor cells generated bulky omental metastases with diffuse microscopic peritoneal carcinomatosis causing ascites (FIG. 5A) with, significant pleural effusion and liver, lung and paraaortic metastases (FIG. 6).

Data set [3] relates to human tumor cells. To be noted: Nakae et al., J. Antibiot., 2001; cited from earlier work.
The subject of data set [4] is human tumor cells. To be noted: Nakae et al., J. Antibiot., 2001; cited from earlier work. This is another data set of the same source.
Another data set in a line: Stability in mice plasma. In kind it is in vitro ADME.
The mark [5] stands for this setting: Homo sapiens, Ovcar3 cells, 12 hours, read-out: IC50, transwell assay.
Setting [6] is: after 12h, human ovarian cancer cells, read-out: concentration at which 50% of the migration was inhibited in the transwell assay.

Where two headings read alike, the source gives them in different places.

Regarding `COCO[C@H]1[C@H](C)COC(=O)CCCC/C=C/[C@@H]1OC` [Compound 21], the “closure of the scar in the wound healing assay” value in the data set with Ovcar3 tumor cells is recorded as “inhibited the closure of the scar”. In addition, the IC50 worked out at 75 ± 6.5 nM in data set [1] (setting [5]) and 75 nM in data set [1] (setting [6]). Further, the “inhibiting the migration of human ovarian cancer cells in the transwell assay” value in data set [1] was “highly potent”.
As for `CO[C@H]1/C=C/CCCCC(=O)OC[C@@H](C)[C@@H]1O` [Compound 22], the IC50 in data set [1] (setting [5]) was 738 ± 267 nM.
As for `CO[C@H]1/C=C/CC/C=C/COC[C@@H](C)[C@@H]1O` [Compound 30], the “tumor metastasis, Luciferase tumor imaging” value in data set [2] is given as “significant inhibition of tumor metastasis”. The “closure of the scar in the wound healing assay” value with Ovcar3 tumor cells is reported as “inhibited the closure of the scar”. The IC50 in data set [1] (setting [5]) was 27 ± 5.8 nM; in data set [1] (setting [6]), 27 nM. Also, the “inhibiting the migration of human ovarian cancer cells in the transwell assay” value in data set [1] is “highly potent”.
As to `CO[C@H]1/C=C/CC/C=C/C(=O)O[C@H]([C@H](C)C(=O)CCCC2CC(=O)NC(=O)C2)/C(C)=C\[C@@H](C)[C@@H]1O` [Migrastatin], the “anchorage-independent growth of human tumor cells” value in the data set on human tumor cells [3] is listed as “inhibit”. Besides, in the data set on human tumor cells [4], the “migration of human tumor cells” value was “inhibit”.
On to `CO[C@H]1/C=C/CC/C=C/COC/C(C)=C\[C@@H](C)[C@@H]1O` [compound 57], for which, in data set [1] (setting [5]), the IC50 is 180 nM.
On to `CO[C@H]1/C=C/CCCCCOC/C(C)=C\[C@@H](C)[C@@H]1O` [compound 61], for which the “stability in mice plasma” value in the data set “Stability in mice plasma” is listed as “stable”.
As for `CO[C@H]1[C@H](C)/C=C(/C)COCCCCC/C=C/[C@@H]1OC` [compound 62], in data set [1] (setting [5]), the IC50 amounted to 180 nM.
